Consider 3 molecules from ChEMBL document CHEMBL1201862, “PubChem BioAssay data set” (2004).

Some test systems named below: 786-0; Hs-578T; OVCAR-8; M14; COLO 205; HL-60; NCI-H226; OVCAR-3; A549; T47D; HCT-116; MCF7; IGROV-1; NCI/ADR-RES; SK-MEL-5; MDA-MB-231; ACHN; K562; OVCAR-5; HCT-15.
Common to all, as to experiment: NCI tumour cell line growth inhibition, 48 h

Structures are written as SMILES.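 Growth conditions: 96-well plates. Treatment: test compound, 48 hours, 5 concentrations. Analysis: linear interpolation between bracketing concentrations; unreached endpoints set to highest concentration. At the GI50, growth is halved.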 Activity calls are given as the source filed them. Rule as the data show it: active = GI50 up to about 1.1 µM and inactive = higher.

Regarding `CN(C)c1ccccc1CN1CCCN(Cc2ccccc2N(C)C)C1c1ccncc1`, the GI50 with 786-0 is 13.1 µM (inactive); with Hs-578T, 17.7 µM (inactive); with OVCAR-8, 15.4 µM (inactive); in the assay on M14, 2.33 µM (inactive); with COLO 205 it was 14.9 µM (inactive); in the assay with HL-60, 13 µM (inactive). For the same molecule, the GI50 was 21.4 µM (inactive) in the assay on NCI-H226; 14.6 µM (inactive) with OVCAR-3; 17.4 µM (inactive) with A549; 17.7 µM (inactive) with T47D; 11.2 µM (inactive) in the assay on HCT-116; 15.9 µM (inactive) in the assay on MCF7. Besides, the GI50 in the assay on IGROV-1 was 14.9 µM (inactive); in the assay on NCI/ADR-RES, 24.1 µM (inactive); with SK-MEL-5, 5.36 µM (inactive); in the assay on MDA-MB-231, 14.7 µM (inactive); in the assay on ACHN, 24.8 µM (inactive); in the assay on K562, 7.41 µM (inactive). The GI50 was 14.1 µM (inactive) with OVCAR-5 and 22.2 µM in the assay with HCT-15.
In the case of `CCOC(=O)/C=C(\C(=O)OCC)n1ccc(=O)[nH]c1=O`, the GI50 in the assay with 786-0 is 4.85 µM (inactive); in the assay on Hs-578T it was 29.4 µM (inactive); in the assay on OVCAR-8, 24 µM (inactive); in the assay with M14 it was 16.5 µM (inactive); with COLO 205 it was 2.67 µM (inactive); with HL-60 it was 2.44 µM (inactive). Besides, the GI50 was 13.3 µM (inactive) with NCI-H226; 13.2 µM (inactive) in the assay on OVCAR-3; 29.8 µM (inactive) with A549; 6.59 µM (inactive) with T47D; 6.31 µM (inactive) in the assay with HCT-116; 9.2 µM (inactive) in the assay on MCF7. In addition, the GI50 in the assay with IGROV-1 was 15.4 µM (inactive); in the assay with NCI/ADR-RES, 26.2 µM (inactive); in the assay on SK-MEL-5 it was 24.7 µM (inactive); in the assay on MDA-MB-231, 14.3 µM (inactive); in the assay with ACHN, 9.35 µM (inactive); in the assay on K562 it was 4.38 µM (inactive). The results for the GI50 in the assay with OVCAR-5 and in the assay on HCT-15 were 19.7 µM (inactive) and 6.27 µM, respectively.
In the case of `C=CCC1(OC(C)=O)C2OC(=O)C1(O)OCC2O` (stereo not given), the GI50 with 786-0, with Hs-578T, with OVCAR-8, in the assay on M14, with COLO 205 and in the assay with HL-60 was > 100 µM (inactive) in each case. The GI50 with NCI-H226, in the assay on OVCAR-3, with A549, with T47D, in the assay with HCT-116 and with MCF7 was > 100 µM (inactive) throughout. In addition, the GI50 in the assay with IGROV-1, in the assay with NCI/ADR-RES, in the assay with SK-MEL-5, in the assay with MDA-MB-231, in the assay with ACHN and with K562 was > 100 µM (inactive) each time. The GI50 was > 100 µM (inactive) in the assay with OVCAR-5 and > 100 µM in the assay on HCT-15.
